US20070212745A1, “BETA-GLUCOSIDASE AND A PROCESS FOR EXTRACTION THEREOF” (priority 2006, published 2007)

System: β glucosidase
Test: Effect of FeSO4 on β glucosidase
Type: biochemical, Rauvolfia serpentina
Conditions: for Fold activity enhanced: relative to 0 mM
Procedure: Rauvolfia serpentina (Sarpgandha) plants were raised from root cuttings at the glass house of Central Institute of Medicinal and Aromatic Plants (CIMAP), Lucknow by following standard agronomic practices. The extraction of the glucosidase enzyme was optimized with respect to buffer, pH, protecting and stabilizing agents to obtain maximum extractable activity. All the operations of enzyme isolation were carried out at 0-4° C. unless specified otherwise. The extraction medium of present invention also relates to a process for the extraction of a B glucosidase from plant tissues from a natural source and useful for the cleaving of β-1,4 linkage of PNPG, said process comprising: homogenizing the plant tissue in a cold extraction medium (1 g tissue/3 ml). Flowers of Rauvolfia serpentina were homogenized in 100 mM K-phosphate buffer (pH 6.0) including 10 mM β-Mercapto ethanol and 2 mM E.D.T.A. (Ethylene Diamine Tetra Acetic Acid). The tissue homogenate was centrifuged at 12,000×g for 30 min at 4° C. and the clear supernatant was collected. Assays specific for the determination of optimum pH, optimum temperature, stability and activation were performed.
Enzyme activity was assayed using the modified method described by Stevens et al, assay mixture in a total volume of 200 μL contained 2.5 mM p-nitrophenyl β-D-glucopyranoside in 100 mM Citrate-Phosphate buffer (pH 5) at defined temperatures with 10 μL of enzyme preparation. After 15 min of incubation time the reaction was stopped by adding 800 μL of 1M Sodium carbonate and the absorbance of p-nitrophenol (the product of reaction) was measured at wavelength 405 nm.
Calculation of Units: The enzyme activity was expressed in terms of μmole of p-nitrophenol formed per minute using the molar extinction coefficient (E) 18,350 m^−1 cm^−1 [Estibalitz, O., Richard, O. A., and Ioannis, Z., 2001. The role of β-glucosidase in biosynthesis of 2,5-dimethyl-4-hydroxy-3 (2H)-furanone in strawberry. Flavour and Fragrance J., 16: 81-84.]

O=S(=O)([O-])[O-].[Fe+2] [FeSO4]
β glucosidase Activity (I.U.) (FeSO4 Conc. 1 mM): 71.93 I.U. | Fold activity enhanced (FeSO4 Conc. 1 mM): 1.74 Fold | β glucosidase Activity (I.U.) (FeSO4 Conc. 5 mM): 335.69 I.U. | Fold activity enhanced (FeSO4 Conc. 5 mM): 8.11 Fold | β glucosidase Activity (I.U.) (FeSO4 Conc. 10 mM): 627.79 I.U. | Fold activity enhanced (FeSO4 Conc. 10 mM): 15.16 Fold | effect of FeSO4 on enzyme activity (in words): activation
